# Assay results from patent US10538512B2, “Aminoacylindazole immunomodulators for treatment of autoimmune diseases” (The Rockefeller University, priority 2016, dated 2020).
# Target: T1, Human FXIIa (Homo sapiens, UniProt P00748)
# T1 construct: active coagulation factor XII (FXIIa); purchased Enzyme Research Labs
# T1 sequence (P00748 373-615 limits assumed): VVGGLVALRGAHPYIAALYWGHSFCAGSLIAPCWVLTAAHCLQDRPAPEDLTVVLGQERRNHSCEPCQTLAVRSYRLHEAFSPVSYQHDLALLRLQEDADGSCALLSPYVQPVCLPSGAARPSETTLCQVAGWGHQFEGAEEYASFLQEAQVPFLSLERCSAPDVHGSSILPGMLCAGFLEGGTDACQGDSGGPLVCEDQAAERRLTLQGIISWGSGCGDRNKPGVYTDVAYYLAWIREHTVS
# T1 sequence (P00748 20-372 partner limits assumed): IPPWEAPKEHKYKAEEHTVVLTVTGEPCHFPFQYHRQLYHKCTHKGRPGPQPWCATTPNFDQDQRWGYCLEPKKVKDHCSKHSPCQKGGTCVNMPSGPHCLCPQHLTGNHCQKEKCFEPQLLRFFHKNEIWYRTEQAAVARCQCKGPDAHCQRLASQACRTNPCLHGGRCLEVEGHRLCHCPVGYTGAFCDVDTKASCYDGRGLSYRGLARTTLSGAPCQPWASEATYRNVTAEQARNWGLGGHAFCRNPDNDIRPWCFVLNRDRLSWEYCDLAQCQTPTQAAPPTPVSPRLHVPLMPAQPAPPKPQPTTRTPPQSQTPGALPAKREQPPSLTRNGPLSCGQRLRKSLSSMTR
# Experiment: Factor XIIa (FXIIa) inhibitory activity, chromogenic substrate assay
# Format: biochemical
# Conditions: Human FXIIa 12.5 nM, Pefachrome XIIa 400 μM, 10 min preincubation
# Experimental: Factor XIIa (FXIIa) Inhibitory Activity:
# In a 96-well clear bottom plate, 80 μl of assay buffer was added to each well. Assay buffer consists of 0.5× Hank's Balanced Salt Solution (Invitrogen), buffered with 25 mM HEPES pH 7.4 (Invitrogen) and 0.5× Tris-buffered saline with Tween-20 0.05% (Santa Cruz Biotechnology). Test compounds were first dissolved in DMSO (Sigma) and then 4 μl were added to test wells containing assay buffer. Serial dilutions using an automated multi-channel pipette were used to generate a concentration range of approximately 1-100 μM. […] 80 μl of this enzyme solution was added to the assay wells. The enzyme/compound mixtures were incubated for 10 minutes at room temperature. Chromogenic substrate (Pefachrome XIIa; Enzyme Research Labs) was added to assay wells at a final concentration of 400 μM. The assay plate was spun for 1 minute at 1500 g and then read at 37° C. in a SpectraMax M2 plate reader (λ=405 nm). Activity was quantified as the rate of change in absorbance, which corresponds to the rate of substrate cleavage.
row,IC50,SMILES
1,> 150 µM,"Cc1cccc2c1NCC[C@@H]2C(=O)n1nc(N)c2c1C[C@H](O)CC2 (single isomer, unassigned) [Example 201, ((6R*)-3-amino-6-hydroxy-4,5,6,7-tetrahydroindazol-1-yl)((4S*)-8-methyl-1,2,3,4-tetrahydroquinolin-4-yl)methanone]"
2,3.3 µM,"Cc1cccc2c1NCC[C@H]2C(=O)n1nc2c(c1N)CC[C@@H](O)C2 (single isomer, unassigned) [Example 200, ((6R*)-3-amino-6-hydroxy-4,5,6,7-tetrahydroindazol-2-yl)((4R*)-8-methyl-1,2,3,4-tetrahydroquinolin-4-yl)methanone]"
3,0.04 µM,"Cc1cccc2c1NCC[C@@H]2C(=O)n1nc2c(c1N)CC[C@@H](O)C2 (single isomer, unassigned) [Example 199, ((6R*)-3-amino-6-hydroxy-4,5,6,7-tetrahydroindazol-2-yl)((4S*)-8-methyl-1,2,3,4-tetrahydroquinolin-4-yl)methanone]"
4,28 µM,"CO[C@@H]1CCc2nn(C(=O)[C@H]3CCNc4ccc(F)cc43)c(N)c2C1 (single isomer, unassigned) [Example 179, ((5R*)-3-amino-5-methoxy-4,5,6,7-tetrahydroindazol-2-yl)((4S*)-6-fluoro-1,2,3,4-tetrahydroquinolin-4-yl)methanone]"
5,> 100 µM,"Nc1c2c(nn1C(=O)[C@@H]1CCNc3ccc(F)cc31)C[C@H](O)CC2 (single isomer, unassigned) [Example 184, ((6R*)-3-amino-6-hydroxy-4,5,6,7-tetrahydroindazol-2-yl)((4R*)-6-fluoro-1,2,3,4-tetrahydroquinolin-4-yl)methanone]"
6,> 100 µM,"CO[C@H]1CCc2nn(C(=O)[C@@H]3CCNc4ccc(F)cc43)c(N)c2C1 (single isomer, unassigned) [Example 176, ((5S*)-3-amino-5-methoxy-4,5,6,7-tetrahydroindazol-2-yl)((4R*)-6-fluoro-1,2,3,4-tetrahydroquinolin-4-yl)methanone]"
7,> 100 µM,"Nc1nn(C(=O)C2CCNc3c(Cl)cccc32)c2c1CCC(O)C2 (single isomer, unassigned) [Example 208, ((6S*)-3-amino-6-hydroxy-4,5,6,7-tetrahydroindazol-1-yl)(8-chloro-1,2,3,4-tetrahydroquinolin-4-yl)methanone]"
8,35 µM,"Cc1cccc2c1NCC[C@H]2C(=O)n1nc2c(c1N)C[C@H](O)CC2 (single isomer, unassigned) [Example 217, ((5R*)-3-amino-5-hydroxy-4,5,6,7-tetrahydro-2H-indazol-2-yl)((4R*)-8-methyl-1,2,3,4-tetrahydroquinolin-4-yl)methanone]"
9,3 µM,"Nc1c2c(nn1C(=O)[C@@H]1CCNc3c(Cl)cccc31)CC[C@H](N)C2 (relative stereo) [Example 216, ((4R*)-8-chloro-1,2,3,4-tetrahydroquinolin-4-yl)((5S*)-3,5-diamino-4,5,6,7-tetrahydroindazol-2-yl)methanone]"
10,16 µM,"Nc1nn(C(=O)C2CCNc3ccc(F)cc32)c2c1CC(F)(F)CC2 (centres unmarked) [Example 175, (3-amino-5,5-difluoro-4,5,6,7-tetrahydroindazol-1-yl)(6-fluoro-1,2,3,4-tetrahydroquinolin-4-yl)methanone]"

# Second part, the compound before the results:
row,SMILES,IC50
1,"Nc1c2c(nn1C(=O)c1ccnc3cc(Cl)ccc13)CCCC2 [Example 123, (3-amino-4,5,6,7-tetrahydro-2H-indazol-2-yl)(7-chloroquinolin-4-yl)methanone]",2.5 µM
2,"COC1CCc2nn(C(=O)c3cccc4[nH]c(C)cc34)c(N)c2C1 (centres unmarked) [Example 119, (3-amino-5-methoxy-4,5,6,7-tetrahydro-2H-indazol-2-yl)(2-methyl-1H-indol-4-yl)methanone]",0.05 µM
3,"Nc1c2c(nn1C(=O)C1CCCc3[nH]c(Br)cc31)CCCC2 (single isomer, unassigned) [Example 108, (S*)-(3-amino-4,5,6,7-tetrahydroindazol-2-yl)(2-bromo-4,5,6,7-tetrahydro-1H-indol-4-yl)methanone]",0.07 µM
4,"Nc1c2c(nn1C(=O)C1CCNc3cc(Cl)ccc31)CCCC2 (centres unmarked) [Example 103, (3-amino-4,5,6,7-tetrahydroindazol-2-yl)(7-chloro-1,2,3,4-tetrahydroquinolin-4-yl)methanone]",0.7 µM
5,"CCc1cc2c(C(=O)n3nc4c(c3N)CCCC4)cccc2n1C (single isomer, unassigned) [Example 66, (3-amino-4,5,6,7-tetrahydroindazol-2-yl)(2-ethyl-1-methyl-1H-indol-4-yl)methanone]",0.01 µM
6,"CCc1cc2c([nH]1)CCCC2C(=O)n1nc2c(c1N)CCCC2 (single isomer, unassigned) [Example 84, (R*)-(3-amino-4,5,6,7-tetrahydroindazol-2-yl)(2-ethyl-4,5,6,7-tetrahydro-1H-indol-4-yl)methanone]",3.3 µM
7,"Nc1nn(C(=O)[C@@H]2CCNc3ccc(Cl)cc32)c2c1C[C@@H](O)CC2 (single isomer, unassigned) [Example 145, ((5S*)-3-amino-5-hydroxy-4,5,6,7-tetrahydroindazol-1-yl)((4R*)-6-chloro-1,2,3,4-tetrahydroquinolin-4-yl)methanone]",> 80 µM
8,"Nc1nn(C(=O)[C@H]2CCNc3ccc(Cl)cc32)c2c1C[C@H](O)CC2 (single isomer, unassigned) [Example 150, ((5R*)-3-amino-5-hydroxy-4,5,6,7-tetrahydroindazol-1-yl)((4S*)-6-chloro-1,2,3,4-tetrahydroquinolin-4-yl)methanone]",23 µM
9,"COc1ccc2c(c1)NCCC2C(=O)n1nc2c(c1N)CCCC2 (centres unmarked) [Example 110, (3-amino-4,5,6,7-tetrahydroindazol-2-yl)(7-methoxy-1,2,3,4-tetrahydroquinolin-4-yl)methanone]",0.25 µM
10,"Nc1nn(C(=O)C2CCCc3[nH]ccc32)c2c1CCCC2 (centres unmarked) [Example 93, (3-amino-4,5,6,7-tetrahydroindazol-1-yl)(4,5,6,7-tetrahydro-1H-indol-4-yl)methanone]",> 100 µM
11,"Nc1c2c(nn1C(=O)C1CCNc3ccc(F)cc31)CCC(F)(F)C2 (single isomer, unassigned) [Example 174, (R*)-(3-amino-5,5-difluoro-4,5,6,7-tetrahydroindazol-2-yl)(6-fluoro-1,2,3,4-tetrahydroquinolin-4-yl)methanone]",> 80 µM
12,Nc1c2c(nn1C(=O)c1ccnc3ccccc13)CCCC2 [Example 158],13 µM
13,"Nc1c2c(nn1C(=O)c1cccc3[nH]ncc13)CCCC2 [Example 47, (3-amino-4,5,6,7-tetrahydroindazol-2-yl)(1H-indazol-4-yl)methanone]",0.03 µM
14,"Cc1cc2c(C(=O)n3nc4c(c3N)CCCC4)cccc2n1C(C)C [Example 49, (3-amino-4,5,6,7-tetrahydroindazol-2-yl)(1-isopropyl-2-methyl-1H-indol-4-yl)methanone]",0.02 µM
15,"Cc1cc2c(C(=O)n3nc4c(c3N)CC(OCc3ccccc3)CC4)cccc2[nH]1 (centres unmarked) [Example 117, (3-amino-5-(benzyloxy)-4,5,6,7-tetrahydroindazol-2-yl)(2-methyl-1H-indol-4-yl)methanone]",0.03 µM
16,"Nc1c2c(nn1C(=O)[C@@H]1CCNc3ccc(F)cc31)CC[C@@H](O)C2 (single isomer, unassigned) [Example 130, ((5R*)-3-amino-5-hydroxy-4,5,6,7-tetrahydro-2H-indazol-2-yl)(4(R*)-6-fluoro-1,2,3,4-tetrahydroquinolin-4-yl)methanone]",45 µM
17,"Nc1nn(C(=O)[C@H]2CCNc3ccc(F)cc32)c2c1C[C@H](O)CC2 (relative stereo) [Example 131, ((5R*)-3-amino-5-hydroxy-4,5,6,7-tetrahydro-2H-indazol-1-yl)((4S*)-6-fluoro-1,2,3,4-tetrahydroquinolin-4-yl)methanone]",> 90 µM
18,"Nc1nn(C(=O)[C@@H]2CCNc3ccc(F)cc32)c2c1C[C@@H](O)CC2 (single isomer, unassigned) [Example 136, ((5S*)-3-amino-5-hydroxy-4,5,6,7-tetrahydroindazol-1-yl)((4R*)-6-fluoro-1,2,3,4-tetrahydroquinolin-4-yl)methanone]",> 90 µM
19,"Nc1c2c(nn1C(=O)c1cccc3c1CC(=O)N3)CCCC2 (single isomer, unassigned) [Example 64, 4-(3-amino-4,5,6,7-tetrahydro-2H-indazole-2-carbonyl)indolin-2-one]",0.2 µM
